These results are taken from US12084472B2 (Ardelyx, Inc., priority 2015, dated 2024).

The target in the experiment is T1, human TGR5 (Homo sapiens, UniProt Q8TDU6).
T1 construct: expressed in transfected cells; host or cells: HEK293
T1 sequence (Q8TDU6 1-330): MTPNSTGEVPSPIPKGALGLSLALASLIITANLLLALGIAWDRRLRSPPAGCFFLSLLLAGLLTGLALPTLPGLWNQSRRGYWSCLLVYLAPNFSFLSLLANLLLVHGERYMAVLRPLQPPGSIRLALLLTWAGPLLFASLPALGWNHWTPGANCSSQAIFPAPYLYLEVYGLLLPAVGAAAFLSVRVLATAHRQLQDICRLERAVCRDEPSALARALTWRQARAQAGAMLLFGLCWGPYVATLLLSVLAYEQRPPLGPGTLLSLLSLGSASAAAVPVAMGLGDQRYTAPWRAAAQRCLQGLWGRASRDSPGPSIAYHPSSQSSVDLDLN
As to the kind of experiment: Cell-based TGR5 assay (cAMP generation, HTRF). The note with it: HEK293 cells stably transfected with human TGR5; cAMP by HTRF; 30 minutes at 37° C.; read-out: pEC50 Human TGR5 (converted). In outline:
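Read-out was HTRF detection of cAMP, converted to concentration via a standard curve and fitted (3-parameter logistic) for pEC50 and maximal response. Agonist stimulation used HEK293 cells stably transfected with human TGR5, incubated 30 min at 37° C in IBMX-containing buffer at 0.05 nM to 10 μM compound.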
(TR-FRET usually uses a lanthanide donor and a delayed reading to cut background.)
As to `CC(CCCC(=O)N1CCN(C(=O)NC[C@H](O)[C@@H](O)[C@H](O)[C@H](O)CO)CC1)c1ccc(Cl)c(CNC2(c3cnccc3-c3ccccc3OC3CC3)CC2)c1` (stereo partly drawn) [Compound I-319, 4-(5-{4-chloro-3-[({1-[4-(2-cyclopropoxyphenyl)pyridin-3-yl]cyclopropyl}amino)methyl]phenyl}hexanoyl)-N-[(2S,3R,4R,5R)-2,3,4,5,6-pentahydroxyhexyl]piperazine-1-carboxamide], the EC50 is below 100 nM.

`CC(CCCC(=O)N1CCC(NC(=O)NC[C@H](O)[C@@H](O)[C@H](O)[C@H](O)CO)CC1)c1ccc(Cl)c(CNC2(c3cnccc3-c3ccccc3OC3CC3)CC2)c1` (stereo partly drawn) [Compound I-320, 1-[1-(5-{4-chloro-3-[({1-[4-(2-cyclopropoxyphenyl)pyridin-3-yl]cyclopropyl}amino)methyl]phenyl}hexanoyl)piperidin-4-yl]-3-[(2S,3R,4R,5R)-2,3,4,5,6-pentahydroxyhexyl]urea]: the EC50 was below 100 nM. With `CC(CCCC(=O)N1CCN(CC(=O)NC[C@H](O)[C@@H](O)[C@H](O)[C@H](O)CO)CC1)c1ccc(Cl)c(CNC2(c3cnccc3-c3ccccc3OC3CC3)CC2)c1` (stereo partly drawn) [Compound I-321, 2-[4-(5-{4-chloro-3-[({1-[4-(2-cyclopropoxyphenyl)pyridin-3-yl]cyclopropyl}amino)methyl]phenyl}hexanoyl)piperazin-1-yl]-N-[(2S,3R,4R,5R)-2,3,4,5,6-pentahydroxyhexyl]acetamide], the EC50 is below 100 nM. The result for `CC(CCCC(=O)NCCN1CCN(C(=O)NC[C@H](O)[C@@H](O)[C@H](O)[C@H](O)CO)CC1)c1ccc(Cl)c(CNC2(c3cnccc3-c3ccccc3OC3CC3)CC2)c1` (stereo partly drawn) [Compound I-322, 4-[2-(5-{4-chloro-3-[({1-[4-(2-cyclopropoxyphenyl)pyridin-3-yl]cyclopropyl}amino)methyl]phenyl}hexanamido)ethyl]-N-[(2S,3R,4R,5R)-2,3,4,5,6-pentahydroxyhexyl]piperazine-1-carboxamide] reads below 100 nM; that for `CC(CCCC(=O)N1CCN(CCNC(=O)NC[C@H](O)[C@@H](O)[C@H](O)[C@H](O)CO)CC1)c1ccc(Cl)c(CNC2(c3cnccc3-c3ccccc3OC3CC3)CC2)c1` (stereo partly drawn) [Compound I-323, 1-{2-[4-(5-{4-chloro-3-[({1-[4-(2-cyclopropoxyphenyl)pyridin-3-yl]cyclopropyl}amino)methyl]phenyl}hexanoyl)piperazin-1-yl]ethyl}-3-[(2S,3R,4R,5R)-2,3,4,5,6-pentahydroxyhexyl]urea], below 100 nM.

As for `CC(CCCC(=O)NCCN1CCN(CC(=O)NC[C@H](O)[C@@H](O)[C@H](O)[C@H](O)CO)CC1)c1ccc(Cl)c(CNC2(c3cnccc3-c3ccccc3OC3CC3)CC2)c1` (stereo partly drawn) [Compound I-324, 5-{4-chloro-3-[({1-[4-(2-cyclopropoxyphenyl)pyridin-3-yl]cyclopropyl}amino)methyl]phenyl}-N-{2-[4-({[(2S,3R,4R,5R)-2,3,4,5,6-pentahydroxyhexyl]carbamoyl}methyl)piperazin-1-yl]ethyl}hexanamide], the EC50 is below 100 nM. The result for `CC(CCCC(=O)N(C)C[C@H](O)[C@@H](O)[C@H](O)[C@H](O)CO)c1ccc(Cl)c(CNC2(c3cnccc3-c3ccccc3OC3CC3)CC2)c1` (stereo partly drawn) [Compound I-327, 5-{4-chloro-3-[({1-[4-(2-cyclopropoxyphenyl)pyridin-3-yl]cyclopropyl}amino)methyl]phenyl}-N-methyl-N-[(2S,3R,4R,5R)-2,3,4,5,6-pentahydroxyhexyl]hexanamide] reads below 100 nM.

Consider `CC(CCCCC(=O)N(C)C[C@H](O)[C@@H](O)[C@H](O)[C@H](O)CO)c1ccc(Cl)c(CNC2(c3cnccc3-c3ccccc3OC3CC3)CC2)c1` (stereo partly drawn) [Compound I-330, 6-{4-chloro-3-[({1-[4-(2-cyclopropoxyphenyl)pyridin-3-yl]cyclopropyl}amino)methyl]phenyl}-N-methyl-N-[(2S,3R,4R,5R)-2,3,4,5,6-pentahydroxyhexyl]heptanamide], for which the EC50 is below 100 nM. For `CC(CCCC(=O)N(CCO)C[C@@H](O)[C@H](O)[C@@H](O)[C@@H](O)CO)c1ccc(Cl)c(CNC2(c3cnccc3-c3ccccc3OC3CC3)CC2)c1` (stereo partly drawn) [Compound I-331, 5-{4-chloro-3-[({1-[4-(2-cyclopropoxyphenyl)pyridin-3-yl]cyclopropyl}amino)methyl]phenyl}-N-(2-hydroxyethyl)-N-[(2R,3S,4S,5S)-2,3,4,5,6-pentahydroxyhexyl]hexanamide], the EC50 was below 100 nM.

`CC(CCCC(=O)N(CC(N)=O)C[C@H](O)[C@@H](O)[C@H](O)[C@H](O)CO)c1ccc(Cl)c(CNC2(c3cnccc3-c3ccccc3OC3CC3)CC2)c1` (stereo partly drawn) [Compound I-332, N-(carbamoylmethyl)-5-{4-chloro-3-[({1-[4-(2-cyclopropoxyphenyl)pyridin-3-yl]cyclopropyl}amino)methyl]phenyl}-N-[(2S,3R,4R,5R)-2,3,4,5,6-pentahydroxyhexyl]hexanamide]: the EC50 is below 100 nM.

With `COCCN(C[C@@H](O)[C@H](O)[C@@H](O)[C@@H](O)CO)C(=O)CCCC(C)c1ccc(Cl)c(CNC2(c3cnccc3-c3ccccc3OC3CC3)CC2)c1` (stereo partly drawn) [Compound I-333, 5-{4-chloro-3-[({1-[4-(2-cyclopropoxyphenyl)pyridin-3-yl]cyclopropyl}amino)methyl]phenyl}-N-(2-methoxyethyl)-N-[(2R,3S,4S,5S)-2,3,4,5,6-pentahydroxyhexyl]hexanamide], the EC50 is below 100 nM. The result for `CC(CCCC(=O)N(CCCO)C[C@H](O)[C@@H](O)[C@H](O)[C@H](O)CO)c1ccc(Cl)c(CNC2(c3cnccc3-c3ccccc3OC3CC3)CC2)c1` (stereo partly drawn) [Compound I-334, 5-{4-chloro-3-[({1-[4-(2-cyclopropoxyphenyl)pyridin-3-yl]cyclopropyl}amino)methyl]phenyl}-N-(3-hydroxypropyl)-N-[(2S,3R,4R,5R)-2,3,4,5,6-pentahydroxyhexyl]hexanamide] reads below 100 nM; that for `CC(CCCC(=O)N(CCC(N)=O)C[C@H](O)[C@@H](O)[C@H](O)[C@H](O)CO)c1ccc(Cl)c(CNC2(c3cnccc3-c3ccccc3OC3CC3)CC2)c1` (stereo partly drawn) [Compound I-335, N-(2-carbamoylethyl)-5-{4-chloro-3-[({1-[4-(2-cyclopropoxyphenyl)pyridin-3-yl]cyclopropyl}amino)methyl]phenyl}-N-[(2S,3R,4R,5R)-2,3,4,5,6-pentahydroxyhexyl]hexanamide], 126 to 1000 nM; that for `CNC(=O)CN(C[C@H](O)[C@@H](O)[C@H](O)[C@H](O)CO)C(=O)CCCC(C)c1ccc(Cl)c(CNC2(c3cnccc3-c3ccccc3OC3CC3)CC2)c1` (stereo partly drawn) [Compound I-336, 5-{4-chloro-3-[({1-[4-(2-cyclopropoxyphenyl)pyridin-3-yl]cyclopropyl}amino)methyl]phenyl}-N-[(methylcarbamoyl)methyl]-N-[(2S,3R,4R,5R)-2,3,4,5,6-pentahydroxyhexyl]hexanamide], below 100 nM.

For `CC(CCCC(=O)N(CCN(C)C)C[C@H](O)[C@@H](O)[C@H](O)[C@H](O)CO)c1ccc(Cl)c(CNC2(c3cnccc3-c3ccccc3OC3CC3)CC2)c1` (stereo partly drawn) [Compound I-337, 5-{4-chloro-3-[({1-[4-(2-cyclopropoxyphenyl)pyridin-3-yl]cyclopropyl}amino)methyl]phenyl}-N-[^2-(dimethylamino)ethyl]-N-[(2S,3R,4R,5R)-2,3,4,5,6-pentahydroxyhexyl]hexanamide], the EC50 was 126 to 1000 nM. The result for `COCCCN(C[C@H](O)[C@@H](O)[C@H](O)[C@H](O)CO)C(=O)CCCC(C)c1ccc(Cl)c(CNC2(c3cnccc3-c3ccccc3OC3CC3)CC2)c1` (stereo partly drawn) [Compound I-338, 5-{4-chloro-3-[({11-[4-(2-cyclopropoxyphenyl)pyridin-3-yl]cyclopropyl}amino)methyl]phenyl}-N-(3-methoxypropyl)-N-[(2S,3R,4R,5R)-2,3,4,5,6-pentahydroxyhexyl]hexanamide] reads below 100 nM; that for `CC(CCCC(=O)N(CC(=O)N(C)C)C[C@H](O)[C@@H](O)[C@H](O)[C@H](O)CO)c1ccc(Cl)c(CNC2(c3cnccc3-c3ccccc3OC3CC3)CC2)c1` (stereo partly drawn) [Compound I-340, 5-{4-chloro-3-[({1-[4-(2-cyclopropoxyphenyl)pyridin-3-yl]cyclopropyl}amino)methyl]phenyl}-N-[(dimethylcarbamoyl)methyl]-N-[(2S,3R,4R,5R)-2,3,4,5,6-pentahydroxyhexyl]hexanamide], 126 to 1000 nM; that for `CC(CCCC(=O)N(C[C@@H](O)[C@H](O)[C@@H](O)[C@@H](O)CO)CC(C)(C)CO)c1ccc(Cl)c(CNC2(c3cnccc3-c3ccccc3OC3CC3)CC2)c1` (stereo partly drawn) [Compound I-341, 5-{4-chloro-3-[({1-[4-(2-cyclopropoxyphenyl)pyridin-3-yl]cyclopropyl}amino)methyl]phenyl}-N-(3-hydroxy-2,2-dimethylpropyl)-N-[(2R,3S,4S,5S)-2,3,4,5,6-pentahydroxyhexyl]hexanamide], below 100 nM. As for `CC(CCCC(=O)N(CCOCCO)C[C@H](O)[C@@H](O)[C@H](O)[C@H](O)CO)c1ccc(Cl)c(CNC2(c3cnccc3-c3ccccc3OC3CC3)CC2)c1` (stereo partly drawn) [Compound I-342, 5-{4-chloro-3-[({1-[4-(2-cyclopropoxyphenyl)pyridin-3-yl]cyclopropyl]amino)methyl]phenyl}-N-[2-(2-hydroxyethoxy)ethyl]-N-[(2S,3R,4R,5R)-2,3,4,5,6-pentahydroxyhexyl]hexanamide], the EC50 is below 100 nM.
